Assay results: ChEMBL document CHEMBL4177767, “Discovery of N2-(4-Amino-cyclohexyl)-9-cyclopentyl- N6-(4-morpholin-4-ylmethyl-phenyl)- 9H-purine-2,6-diamine as a Potent FLT3 Kinase Inhibitor for Acute Myeloid Leukemia with FLT3 Mutations” (J Med Chem, 2018)
Activity calls are given as the source filed them. No cut-off for these calls is given here.

Experiments:
Kasumi 1 = test: cells; details: Homo sapiens, Kasumi 1, 72 h
[1] = target: Serine/threonine-protein kinase SIK1 (Homo sapiens) (UniProt P57059); details: 10 nM
Description: Inhibition of full length human N-terminal GST-tagged SIK expressed in baculovirus expression system at 10 nM relative to control

MV4-11 [2] = test: Cell cycle arrest in human MV4-11 cells assessed as accumulation at S phase at 0.01 nM after 24 hrs by propidium iodide staining-based flow cytometric method (reference value: 28.1%); type: functional
[3] = target: T1, Receptor-type tyrosine-protein kinase FLT3 (Homo sapiens, UniProt P36888); test: biochemical; type: cell-based, Sf9
T1 sequence (P36888 whole entry): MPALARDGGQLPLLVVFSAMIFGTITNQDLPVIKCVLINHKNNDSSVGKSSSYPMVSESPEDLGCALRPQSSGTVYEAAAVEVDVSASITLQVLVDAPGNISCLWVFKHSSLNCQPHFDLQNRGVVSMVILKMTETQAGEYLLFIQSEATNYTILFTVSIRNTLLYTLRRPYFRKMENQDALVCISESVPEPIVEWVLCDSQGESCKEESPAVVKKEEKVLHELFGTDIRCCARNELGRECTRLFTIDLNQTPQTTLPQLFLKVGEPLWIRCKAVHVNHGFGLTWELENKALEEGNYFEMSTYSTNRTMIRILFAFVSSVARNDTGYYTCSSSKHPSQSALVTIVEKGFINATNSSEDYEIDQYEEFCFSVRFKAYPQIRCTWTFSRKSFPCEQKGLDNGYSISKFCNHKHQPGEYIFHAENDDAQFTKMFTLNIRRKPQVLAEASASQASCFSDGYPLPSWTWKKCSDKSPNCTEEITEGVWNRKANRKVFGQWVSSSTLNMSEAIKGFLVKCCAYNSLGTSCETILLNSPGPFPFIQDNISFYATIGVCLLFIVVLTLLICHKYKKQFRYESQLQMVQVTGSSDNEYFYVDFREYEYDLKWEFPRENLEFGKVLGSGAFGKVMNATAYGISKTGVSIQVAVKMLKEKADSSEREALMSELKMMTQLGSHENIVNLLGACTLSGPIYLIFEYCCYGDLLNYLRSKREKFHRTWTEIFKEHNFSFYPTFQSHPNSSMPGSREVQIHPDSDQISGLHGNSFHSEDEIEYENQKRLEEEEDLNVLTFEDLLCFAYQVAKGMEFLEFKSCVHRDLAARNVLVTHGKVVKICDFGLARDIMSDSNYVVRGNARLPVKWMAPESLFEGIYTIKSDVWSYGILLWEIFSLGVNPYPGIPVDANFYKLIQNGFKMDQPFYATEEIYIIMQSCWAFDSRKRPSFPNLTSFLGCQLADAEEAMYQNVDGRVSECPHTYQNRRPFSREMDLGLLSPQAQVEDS
Description: Inhibition of N-terminal GST/His6-fused recombinant wild type human FLT3 (R571 to S993 residues) expressed in Sf9 insect cells using poly (Ala,Glu,Lys,Tyr) 6:2:5:1 hydrobromide as substrate in presence of [gamma-33P]ATP

[4] = target: Platelet-derived growth factor receptor beta (Homo sapiens) (UniProt P09619); details: 10 nM
Description: Inhibition of human N-terminal GST-tagged PDGFRbeta cytoplasmic domain expressed in baculovirus expression system at 10 nM relative to control

MV4-11 [5] = test: Cell cycle arrest in human MV4-11 cells assessed as accumulation at G1 phase at 100 nM after 24 hrs by propidium iodide staining-based flow cytometric method (reference value: 56%); type: functional
MV4-11 [6] = test: Growth inhibition of human MV4-11 cells after 72 hrs by calcein AM dye-based fluorescence assay; type: functional; details: MV4-11, 72 h
MV4-11 [7] = test: Induction of apoptosis in human MV4-11 cells assessed as increase in PARP1 cleavage at 10 to 100 nM after 24 hrs by immunoblot method; type: functional, cell-based
MV4-11 [8] = test: Cell cycle arrest in human MV4-11 cells assessed as accumulation at G2/M phase at 100 nM after 24 hrs by propidium iodide staining-based flow cytometric method (reference value: 15.9%); type: functional
Rattus norvegicus [9] = test: Toxicity in Wistar rat assessed as pathological macroscopic changes at 200 mg/kg, po after 15 days; type: organism-based; details: in vivo, 360 h
K562 = test: Induction of apoptosis in human K562 cells assessed as increase in caspase-3/7 activity using Ac-DEVD-AMC substrate after 24 hrs by fluorescence assay; type: functional, cell-based
[10] = target: Calcium/calmodulin-dependent protein kinase type II subunit delta (Homo sapiens) (UniProt Q13557); details: 10 nM
Description: Inhibition of full length human N-terminal GST-tagged CaMK2delta expressed in baculovirus expression system at 10 nM relative to control

in vitro = details: human, BJ cells
[11] = target: Activated CDC42 kinase 1 (Homo sapiens) (UniProt Q07912); details: 10 nM
Description: Inhibition of human N-terminal GST-tagged ACK catalytic domain expressed in baculovirus expression system at 10 nM relative to control

MV4-11 [12] = test: Cell cycle arrest in human MV4-11 cells assessed as accumulation at G1 phase at 1 nM after 24 hrs by propidium iodide staining-based flow cytometric method (reference value: 56%); type: functional
THP-1 = test: cells; details: Homo sapiens, THP-1, 72 h
MV4-11 [13] = test: Cell cycle arrest in human MV4-11 cells assessed as accumulation at S phase at 10 nM after 24 hrs by propidium iodide staining-based flow cytometric method (reference value: 28.1%); type: functional
[14] = target: Dual specificity protein kinase CLK1 (Homo sapiens) (UniProt P49759); details: 10 nM
Description: Inhibition of human N-terminal GST-tagged CLK1 catalytic domain expressed in baculovirus expression system at 10 nM relative to control

MV4-11 [15] = test: Cell cycle arrest in human MV4-11 cells assessed as accumulation at sub-G1 phase at 0.1 nM after 24 hrs by propidium iodide staining-based flow cytometric method (reference value: 9.2%); type: functional
MV4-11 [16] = test: Cell cycle arrest in human MV4-11 cells assessed as accumulation at sub-G1 phase at 10 nM after 24 hrs by propidium iodide staining-based flow cytometric method (reference value: 9.2%); type: functional
Mus musculus = test: In vivo inhibition of FLT3 ITD mutant in human MV4-11 cells xenografted in athymic nu/nu mouse assessed as decrease in STAT5 phosphorylation at Y694 at 10 mg/kg, ip after 24 hrs by immunoblot method relative to control; type: functional; details: MV4-11, ip
U-937 = test: cells; details: Homo sapiens, U-937, 72 h
MV4-11 [17] = test: Cell cycle arrest in human MV4-11 cells assessed as accumulation at G1 phase at 10 nM after 24 hrs by propidium iodide staining-based flow cytometric method (reference value: 56%); type: functional
[18] = target: Receptor-type tyrosine-protein kinase FLT3 (Homo sapiens) (UniProt P36888); test: Inhibition of human N-terminal GST-tagged FLT3 cytoplasmic domain expressed in baculovirus expression system at 10 nM
[19] = target: Macrophage colony-stimulating factor 1 receptor (Homo sapiens) (UniProt P07333); details: 10 nM
Description: Inhibition of human N-terminal GST-tagged FMS expressed in baculovirus expression system at 10 nM relative to control

Rattus norvegicus [20] = test: Toxicity in Wistar rat assessed as pathological macroscopic changes at 100 mg/kg, iv after 15 days; type: organism-based; details: in vivo, 360 h
[21] = test system: Receptor-type tyrosine-protein kinase FLT3 (Homo sapiens), P36888 [UNDEFINED MUTATION]; details: MV4-11, at 0.01 to 100 nM
Description: Inhibition of FLT3 ITD mutant in human MV4-11 cells assessed as decrease in MEK1/2 phosphorylation at S217/221 at 0.01 to 100 nM after 1 hr by immunoblot analysis

MV4-11 [22] = test: Cell cycle arrest in human MV4-11 cells assessed as accumulation at G2/M phase at 0.1 nM after 24 hrs by propidium iodide staining-based flow cytometric method (reference value: 15.9%); type: functional

Sequence of Calcium/calmodulin-dependent protein kinase type II subunit delta (Homo sapiens) (Q13557 whole entry): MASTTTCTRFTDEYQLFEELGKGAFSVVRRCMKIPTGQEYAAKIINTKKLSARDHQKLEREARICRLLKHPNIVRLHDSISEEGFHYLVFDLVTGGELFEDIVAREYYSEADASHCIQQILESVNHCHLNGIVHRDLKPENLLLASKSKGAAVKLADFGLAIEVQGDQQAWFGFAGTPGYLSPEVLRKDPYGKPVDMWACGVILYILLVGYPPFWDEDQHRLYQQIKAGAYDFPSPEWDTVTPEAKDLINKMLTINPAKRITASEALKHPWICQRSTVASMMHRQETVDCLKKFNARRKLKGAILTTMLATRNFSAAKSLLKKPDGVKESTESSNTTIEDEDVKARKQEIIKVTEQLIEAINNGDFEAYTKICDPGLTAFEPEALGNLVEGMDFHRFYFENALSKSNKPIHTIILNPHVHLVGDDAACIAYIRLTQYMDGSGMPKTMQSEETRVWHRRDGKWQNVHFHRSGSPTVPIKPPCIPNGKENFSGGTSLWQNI
Sequence of Activated CDC42 kinase 1 (Homo sapiens) (Q07912 whole entry, looked up): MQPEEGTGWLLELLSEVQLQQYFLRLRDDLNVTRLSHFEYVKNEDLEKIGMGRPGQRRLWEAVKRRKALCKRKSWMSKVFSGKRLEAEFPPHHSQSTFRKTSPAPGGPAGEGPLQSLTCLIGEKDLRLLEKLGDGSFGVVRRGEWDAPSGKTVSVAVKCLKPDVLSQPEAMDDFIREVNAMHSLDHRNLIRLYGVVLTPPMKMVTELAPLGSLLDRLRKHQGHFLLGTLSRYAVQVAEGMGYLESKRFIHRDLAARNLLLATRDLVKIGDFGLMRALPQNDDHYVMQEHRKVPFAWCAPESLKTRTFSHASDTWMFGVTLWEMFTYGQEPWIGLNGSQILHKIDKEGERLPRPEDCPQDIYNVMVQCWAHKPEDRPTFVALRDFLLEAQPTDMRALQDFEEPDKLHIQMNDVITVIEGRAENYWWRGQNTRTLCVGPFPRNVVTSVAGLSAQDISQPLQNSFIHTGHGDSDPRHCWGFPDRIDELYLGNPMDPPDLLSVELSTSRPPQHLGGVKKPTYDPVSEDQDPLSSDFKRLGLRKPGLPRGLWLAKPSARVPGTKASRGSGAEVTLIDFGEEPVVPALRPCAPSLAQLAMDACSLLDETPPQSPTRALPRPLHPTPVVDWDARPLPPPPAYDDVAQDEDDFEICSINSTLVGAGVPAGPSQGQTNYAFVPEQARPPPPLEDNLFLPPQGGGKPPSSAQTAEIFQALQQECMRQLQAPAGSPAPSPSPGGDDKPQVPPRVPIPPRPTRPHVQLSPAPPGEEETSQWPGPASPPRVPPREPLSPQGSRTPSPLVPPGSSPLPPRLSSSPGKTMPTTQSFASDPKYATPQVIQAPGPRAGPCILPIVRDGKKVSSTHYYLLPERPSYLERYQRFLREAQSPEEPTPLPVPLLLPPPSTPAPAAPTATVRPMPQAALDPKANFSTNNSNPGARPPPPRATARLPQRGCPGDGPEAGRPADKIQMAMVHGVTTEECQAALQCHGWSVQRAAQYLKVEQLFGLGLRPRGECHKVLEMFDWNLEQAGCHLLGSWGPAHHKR
Sequence of Platelet-derived growth factor receptor beta (Homo sapiens) (P09619 whole entry): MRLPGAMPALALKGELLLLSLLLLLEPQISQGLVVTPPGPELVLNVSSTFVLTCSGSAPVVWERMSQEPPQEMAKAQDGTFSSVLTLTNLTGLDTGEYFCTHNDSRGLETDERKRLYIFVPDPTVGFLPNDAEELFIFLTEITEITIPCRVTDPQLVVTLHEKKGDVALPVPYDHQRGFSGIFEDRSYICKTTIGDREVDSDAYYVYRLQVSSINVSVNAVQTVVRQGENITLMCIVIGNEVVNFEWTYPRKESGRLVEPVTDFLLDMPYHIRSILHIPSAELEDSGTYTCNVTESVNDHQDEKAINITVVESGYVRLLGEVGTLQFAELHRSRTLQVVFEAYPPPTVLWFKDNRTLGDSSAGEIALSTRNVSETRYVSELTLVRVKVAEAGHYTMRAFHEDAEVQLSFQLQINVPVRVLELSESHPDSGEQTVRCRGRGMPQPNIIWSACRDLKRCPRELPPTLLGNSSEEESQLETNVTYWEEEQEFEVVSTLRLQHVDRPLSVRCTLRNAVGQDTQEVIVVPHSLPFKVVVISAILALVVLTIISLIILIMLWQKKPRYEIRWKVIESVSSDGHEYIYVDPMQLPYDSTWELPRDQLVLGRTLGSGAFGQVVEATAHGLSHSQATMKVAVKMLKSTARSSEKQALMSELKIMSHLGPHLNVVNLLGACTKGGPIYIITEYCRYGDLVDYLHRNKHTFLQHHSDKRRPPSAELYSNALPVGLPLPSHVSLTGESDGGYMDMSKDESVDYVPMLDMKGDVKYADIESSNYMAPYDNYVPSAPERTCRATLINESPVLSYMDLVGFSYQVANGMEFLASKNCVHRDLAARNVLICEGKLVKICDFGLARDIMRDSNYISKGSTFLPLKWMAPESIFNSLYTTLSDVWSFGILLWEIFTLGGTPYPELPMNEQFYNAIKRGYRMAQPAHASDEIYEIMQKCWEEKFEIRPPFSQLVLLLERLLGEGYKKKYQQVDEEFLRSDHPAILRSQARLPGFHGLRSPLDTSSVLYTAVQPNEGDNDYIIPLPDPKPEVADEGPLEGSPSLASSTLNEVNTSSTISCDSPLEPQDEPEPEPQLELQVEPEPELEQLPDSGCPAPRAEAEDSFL
Sequence of Dual specificity protein kinase CLK1 (Homo sapiens) (P49759 whole entry, looked up): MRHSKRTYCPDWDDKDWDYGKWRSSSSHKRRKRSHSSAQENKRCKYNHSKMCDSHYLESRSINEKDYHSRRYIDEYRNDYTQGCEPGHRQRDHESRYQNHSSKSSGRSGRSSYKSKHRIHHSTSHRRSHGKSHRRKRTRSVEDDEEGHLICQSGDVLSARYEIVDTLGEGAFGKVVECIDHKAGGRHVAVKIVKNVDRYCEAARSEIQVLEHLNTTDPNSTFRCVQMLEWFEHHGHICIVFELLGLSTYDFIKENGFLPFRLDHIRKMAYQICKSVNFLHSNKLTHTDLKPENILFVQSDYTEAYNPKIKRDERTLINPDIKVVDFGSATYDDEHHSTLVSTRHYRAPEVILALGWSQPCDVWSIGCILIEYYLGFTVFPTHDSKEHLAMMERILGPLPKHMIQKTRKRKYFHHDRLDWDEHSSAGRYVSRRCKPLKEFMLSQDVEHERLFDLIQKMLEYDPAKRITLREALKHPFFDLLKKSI
Sequence of Serine/threonine-protein kinase SIK1 (Homo sapiens) (P57059 whole entry): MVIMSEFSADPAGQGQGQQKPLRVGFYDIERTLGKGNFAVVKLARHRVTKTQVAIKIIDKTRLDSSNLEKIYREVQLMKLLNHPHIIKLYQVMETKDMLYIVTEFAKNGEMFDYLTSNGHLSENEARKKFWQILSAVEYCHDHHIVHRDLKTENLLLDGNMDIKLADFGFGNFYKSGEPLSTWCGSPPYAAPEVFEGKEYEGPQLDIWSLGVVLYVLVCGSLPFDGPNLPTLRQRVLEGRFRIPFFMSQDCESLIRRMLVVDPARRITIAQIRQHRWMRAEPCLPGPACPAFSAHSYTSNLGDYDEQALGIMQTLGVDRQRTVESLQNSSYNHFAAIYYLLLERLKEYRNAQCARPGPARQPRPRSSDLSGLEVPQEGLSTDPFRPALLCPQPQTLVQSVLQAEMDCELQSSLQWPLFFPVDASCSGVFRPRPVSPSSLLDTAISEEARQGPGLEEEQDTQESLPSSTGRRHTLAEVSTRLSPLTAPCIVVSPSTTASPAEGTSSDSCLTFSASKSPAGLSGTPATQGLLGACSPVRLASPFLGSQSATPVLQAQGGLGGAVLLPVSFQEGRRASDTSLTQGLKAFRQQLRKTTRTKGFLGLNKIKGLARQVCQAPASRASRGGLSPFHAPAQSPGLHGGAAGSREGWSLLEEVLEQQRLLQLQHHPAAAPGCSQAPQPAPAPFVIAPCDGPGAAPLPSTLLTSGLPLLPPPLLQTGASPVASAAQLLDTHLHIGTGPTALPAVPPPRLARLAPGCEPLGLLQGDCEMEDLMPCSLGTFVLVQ
Sequence of Macrophage colony-stimulating factor 1 receptor (Homo sapiens) (P07333 whole entry): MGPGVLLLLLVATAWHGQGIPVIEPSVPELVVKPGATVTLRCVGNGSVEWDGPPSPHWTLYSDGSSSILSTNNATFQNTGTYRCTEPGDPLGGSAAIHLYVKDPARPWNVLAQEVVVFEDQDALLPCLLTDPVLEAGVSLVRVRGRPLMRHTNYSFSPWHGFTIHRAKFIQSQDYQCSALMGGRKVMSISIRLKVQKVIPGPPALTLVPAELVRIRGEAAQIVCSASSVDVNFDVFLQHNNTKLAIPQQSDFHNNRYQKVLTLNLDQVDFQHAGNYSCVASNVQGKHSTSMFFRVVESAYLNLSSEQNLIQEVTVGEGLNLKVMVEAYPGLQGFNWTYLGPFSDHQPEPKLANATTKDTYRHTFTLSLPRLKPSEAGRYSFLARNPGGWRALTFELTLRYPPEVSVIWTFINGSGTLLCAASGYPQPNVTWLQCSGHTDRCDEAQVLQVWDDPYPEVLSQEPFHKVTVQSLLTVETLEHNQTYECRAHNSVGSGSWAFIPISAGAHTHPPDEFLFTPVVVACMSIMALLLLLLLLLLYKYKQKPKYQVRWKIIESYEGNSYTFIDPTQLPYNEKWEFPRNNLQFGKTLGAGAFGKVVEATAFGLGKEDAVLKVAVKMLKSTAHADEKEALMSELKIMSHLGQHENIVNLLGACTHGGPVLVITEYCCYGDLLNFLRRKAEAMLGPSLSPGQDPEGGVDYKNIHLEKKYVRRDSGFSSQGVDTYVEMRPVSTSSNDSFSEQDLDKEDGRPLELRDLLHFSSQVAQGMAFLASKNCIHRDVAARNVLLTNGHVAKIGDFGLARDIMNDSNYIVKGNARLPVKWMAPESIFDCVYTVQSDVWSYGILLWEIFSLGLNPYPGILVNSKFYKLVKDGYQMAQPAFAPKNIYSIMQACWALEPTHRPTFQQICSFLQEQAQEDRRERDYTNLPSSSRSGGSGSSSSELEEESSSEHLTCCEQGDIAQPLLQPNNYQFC

N[C@H]1CC[C@H](Nc2nc(Nc3ccc(CN4CCOCC4)cc3)c3ncn(C4CCCC4)c3n2)CC1
GI50 (Kasumi 1): 513 nM | inhibition [1]: > 90% | Activity (MV4-11 [2]): 29.9% | IC50 [3]: 13 nM | inhibition [4]: > 90% | Activity (MV4-11 [5]): 95% | GI50 (MV4-11 [6]): 2 nM | Activity (MV4-11 [7]): Active | Activity (MV4-11 [8]): 1.2% | Activity (Rattus norvegicus [9]): Non-Toxic | Activity (K562): inactive | inhibition [10]: > 90% | GI50 at 72 h (in vitro): 12700 nM | inhibition [11]: > 90% | Activity (MV4-11 [12]): 90.3% | GI50 (THP-1): 713 nM | Activity (MV4-11 [13]): 2.7% | inhibition [14]: > 90% | Activity (MV4-11 [15]): 11.8% | Activity (MV4-11 [16]): 42.9% | inhibition in vivo at 10 mg/kg (Mus musculus): 95% | GI50 (U-937): 664 nM | Activity (MV4-11 [17]): 96.5% | inhibition [18]: Active | inhibition [19]: > 90% | Activity (Rattus norvegicus [20]): Non-Toxic | inhibition [21]: Active | Activity (MV4-11 [22]): 12.3%
